Like-named read-outs stand apart in the source and are kept apart here.
Tests used:
[1] = test system: dermal papilla (DP) cell line; assay: MTT cell viability on normal cell line DP; type: cell-based; settings: 72 h
Protocol: (§1) DP and BEAS-2B were seeded into 96-well plates at densities of 1 × 10^4 cells per well, while HaCaT cells were seeded at densities of 5 × 10^3 cells per well. The cells were allowed to adhere for 24 h. Subsequently, the cells were treated with various concentrations of compounds 3a–3o, 4a, and 4b at 72 h for DP cells and at 24 h for HaCaT and BEAS-2B cells. After the treatment period, cells were incubated with 0.5 mg/ml of MTT for 2 h. The resulting MTT product was measured at 570 nm using a spectrophotometric microplate reader. Cell viability was calculated by comparing the optical density (OD) measurements to those of the untreated control, and the results were expressed as a percentage.

H460 NSCLC cells [2] = assay: Annexin V-FITC/PI double staining flow cytometry, H460; type: cell-based, human; settings: H460, 7 h; statement for 1 at 20 µM
Protocol: (§2) Apoptosis cell death was investigated following the manufacturer's protocol (ImmunoTools, Friesoythe, Germany) using FITC–labeled Annexin V/PI. Treated cells was cultured overnight in 24-well plates at a density of 5 × 10^4 cells/well. Subsequently, cells were treated with various concentrations of 1, and 3b (0, 0.1, 1, 5, 10, and 20 µM) for 7 h. After treatment, cells were collected, washed with cold PBS, and then suspended in binding buffer. Each cell suspension was stained with 2.5 µL of annexin V-FITC and 1 µL of PI. The mixture was vortexed, then incubated for 15 min at room temperature. Guava easyCyte flow cytometer (EMD Millipore, Hayward, CA, USA) was utilized to detect live, apoptotic, and necrotic cells. The modes of cell death were classified as necrotic (PI+), and apoptotic cell death, divided into early apoptotic (PI (-) Annexin-V (+)) and late apoptotic (PI (+) Annexin-V (+)).

[3] = test system: human keratinocyte (HaCaT) cell line; assay: MTT cell viability on normal cell line HaCaT; type: cell-based; settings: Homo sapiens, 24 h, read-out: IC50 ± S.D. HaCaT
Protocol: as §1

H460 NSCLC cells [4] = assay: Hoechst 33342/PI nuclear co-staining apoptosis and accidental necrosis assay, H460; type: cell-based, human; settings: cisplatin-sensitive H460, 7 h, 0–20 µM
Protocol: (§3) The anti-proliferative activity of compounds 1 and 3b against H292 and H460 cells were assessed across a range of concentrations (0–20 µM) under treatment at 10 and 24 h. […] The cytotoxic effect of 3b was closely resembled that of the parental compound 1 after 24 h treatment. According to their cytotoxic profiles at short treatment duration, the NSCLC cell lines were treated with various concentrations (0, 0.1, 1, 5, 10, and 20 µM) of compounds 1 and 3b, followed by Hoechst 33342 and PI staining to visualize morphological changes by fluorescence microscopy (Fig. 4C–F). The bright blue fluorescence of Hoechst 33342 indicated apoptosis, characterized by DNA condensation and fragmentation. In contrast, the red fluorescence emitted by propidium iodide (PI) indicated necrotic cell death. The percentage of apoptotic and necrotic cells was calculated based on the stained image.
(§4) NSCLC cells (H292 and H460) were seeded into a 96-well plate at a density of 1 × 10^4 cells/well for 24 h. Subsequently, the cells were treated with several concentrations of compounds 1 and 3b (0–20 µM) for 7 h. […] Visualization and imaging of the stained cells were carried out using a fluorescence microscope (Nikon ECLIPSE Ts2, Tokyo, Japan). […] The percentage of cell death was analyzed and reported.

H292 NSCLC cells [5] = assay: Hoechst 33342/PI nuclear co-staining apoptosis and accidental necrosis assay, H292; type: cell-based, human; settings: cisplatin-resistant H292, 7 h, 0–20 µM; statement for 1 at the highest concentration (20 µM)
Protocol: as §3, §4

[6] = test system: non-tumorigenic bronchial epithelial (BEAS-2B) cell line; assay: MTT cell viability on normal cell line BEAS-2B; type: cell-based; settings: Homo sapiens, BEAS-2B normal cell line, 24 h, read-out: IC50 ± S.D. BEAS-2B
Protocol: as §1

H292 NSCLC cells [7] = assay: Annexin V-FITC/PI double staining flow cytometry, H292; type: cell-based, human; settings: H292, 7 h; statement for 1 at 20 µM
Protocol: as §2

[8] = test system: H292 non-small-cell lung cancer cell line; assay: cells; type: cell-based; settings: Homo sapiens, NCI-H292, H292, MTT
Protocol: (§5) The in vitro cytotoxicity of all the semisynthesized esters and their precursors against H292 and H460 human NSCLC cell lines was analyzed based on the mitochondrial dehydrogenase activity via the MTT assay[43] (Table 1). The compounds were tested at doses of 1–250 nM. Cisplatin and doxorubicin, which are the standard chemotherapeutic drugs for the treatment of NSCLC, were used as positive controls. […] However, the extended use of 1 is limited by the concerns for unwanted necrosis, which is an unprogrammed form of cell death caused by the presence of two quinone moieties. […] The IC50 values of the 5-O-ester derivatives 3a, 3b, 3d, 3h, 3i, and 3k were in the same range as the mother compound 1.
(§6) The in vitro cytotoxicity of compounds 3a–3o, 4a, and 4b was determined against the H292 and H460 NSCLC cell lines by the MTT colorimetric assay. Each compound was dissolved in DMSO to prepare a 10 mM stock solution. Both the H292 and H460 cells were cultured in RPMI 1640 medium supplemented with 2 mM L-glutamine, 10% FBS, and 100 units/mL of penicillin–streptomycin at 37 °C under 5% CO2. The NSCLC cells were trypsinized and seeded with a density of 5 × 10^3 cells/well in a 96-well plate, followed by overnight incubation. Serial dilutions of the test compounds ranging from 1 to 250 nM were prepared in the presence of DMSO (< 0.2% v/v). […] After incubation, formazan crystals were solubilized by adding 100 µL of DMSO, and their absorbance was measured at 570 nm by a spectrophotometric microtiter plate reader (PerkinElmer Victor 3 1420 Multilabel Plate Counter). Cell viability was calculated as the percentage of nontreated control cells. The mean IC50 values were obtained from three independent experiments. Each experiment was conducted in triplicate with at least five concentrations of the tested compounds. The GraphPad Prism software (version 5) was used to calculate the average IC50 and standard deviation (S.D.) values for each experiment. Cisplatin and doxorubicin were used as the positive controls, while 0.2% DMSO served as the negative control.

[9] = test system: H460 non-small-cell lung cancer cell line; assay: cells; type: cell-based; settings: Homo sapiens, NCI-H460, H460, MTT
Protocol: as §5, §6

[10] = 10 h, 0–20 µM, read-out: IC50 ± S.D. H292 10 h
[11] = 24 h, 0–20 µM, read-out: IC50 ± S.D. H292 24 h
[12] = 72 h, read-out: IC50 ± S.D. H292
[13] = 10 h, 0–20 µM, read-out: IC50 ± S.D. H460 10 h
[14] = 24 h, 0–20 µM, read-out: IC50 ± S.D. H460 24 h
[15] = 72 h, read-out: IC50 ± S.D. H460

Row | Structure (SMILES) | IC50 [1] [nM] | Mode of cell death by annexin V-FITC/PI flow cytometric analysis (H460 NSCLC cells [2]) | IC50 [3] [nM] | Mode of cell death (apoptosis / accidental necrosis) by Hoechst 33342/PI staining (H460 NSCLC cells [4]) | Mode of cell death (apoptosis / accidental necrosis) by Hoechst 33342/PI staining (H292 NSCLC cells [5]) | IC50 [6] [nM] | Mode of cell death by annexin V-FITC/PI flow cytometric analysis (H292 NSCLC cells [7]) | IC50 [8, 10] [nM] | IC50 [8, 11] [nM] | IC50 [8, 12] [nM] | IC50 [9, 13] [nM] | IC50 [9, 14] [nM] | IC50 [9, 15] [nM]
1 | C/C=C(/C)C(=O)OC[C@H]1c2c(c(OC(=O)CC)c(C)c3c2OCO3)C[C@H]2[C@H]3C4=C(C[C@@H]([C@H](C#N)N12)N3C)C(=O)C(C)=C(OC)C4=O [Compound 3b, 5-O-(3-propanoyl) ester of renieramycin T] | 23.6 ± 0.65 | early apoptosis with minimal necrosis | 33.7 ± 9.43 | induced apoptosis with minimal necrosis | morphological apoptosis with no detectable necrotic cells | 90.2 ± 9.49 | early apoptosis with minimal necrosis | 17600 ± 6580 | 4140 ± 840 | 33.4 ± 0.87 | 18800 ± 400 | 7320 ± 520 | 33.9 ± 1.95
2 | C/C=C(/C)C(=O)OC[C@H]1C2=C(C[C@H]3[C@H]4C5=C(C[C@@H]([C@H](C#N)N13)N4C)C(=O)C(C)=C(OC)C5=O)C(=O)C(C)=C(OC)C2=O [Compound 1, Renieramycin M] | 7.07 ± 1.5 | necrotic cell death in both H292 and H460 cell lines in conjugation with late apoptosis | 8.01 ± 0.53 | unwanted necrosis was observed in a dosed-dependent manner | induced both apoptosis and accidental necrosis | 75 ± 9.77 | necrotic cell death in both H292 and H460 cell lines in conjugation with late apoptosis | 4920 ± 3140 | 3240 ± 800 | 34.4 ± 1.7 | 12000 ± 2730 | 4130 ± 1000 | 35.6 ± 1.82

Reference: PMC10700347, “Semisynthesis of 5-O-ester derivatives of renieramycin T and their cytotoxicity against non-small-cell lung cancer cell lines” (Scientific Reports, 2023)
